# Biological target: ATR kinase (full-length ATR) (Homo sapiens (Human), UniProt Q13535)
# Assay: ATR inhibition assay (radioactive-phosphate incorporation)
# Format: biochemical
# Details: not given
# Procedure, shortened: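 Radiometric 33P incorporation by 5 nM full-length ATR into 800 μM target peptide with 10 μM [γ-33P]ATP, in 50 mM Tris/HCl pH 7.5, 10 mM MgCl2, 1 mM DTT, 7% DMSO, 25° C. Compound pre-incubated 10 minutes; reaction stopped after 24 hours, captured on phosphocellulose. Ki(app) from non-linear regression of initial rates.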
# ATR kinase (full-length ATR), sequence (Q13535 whole entry): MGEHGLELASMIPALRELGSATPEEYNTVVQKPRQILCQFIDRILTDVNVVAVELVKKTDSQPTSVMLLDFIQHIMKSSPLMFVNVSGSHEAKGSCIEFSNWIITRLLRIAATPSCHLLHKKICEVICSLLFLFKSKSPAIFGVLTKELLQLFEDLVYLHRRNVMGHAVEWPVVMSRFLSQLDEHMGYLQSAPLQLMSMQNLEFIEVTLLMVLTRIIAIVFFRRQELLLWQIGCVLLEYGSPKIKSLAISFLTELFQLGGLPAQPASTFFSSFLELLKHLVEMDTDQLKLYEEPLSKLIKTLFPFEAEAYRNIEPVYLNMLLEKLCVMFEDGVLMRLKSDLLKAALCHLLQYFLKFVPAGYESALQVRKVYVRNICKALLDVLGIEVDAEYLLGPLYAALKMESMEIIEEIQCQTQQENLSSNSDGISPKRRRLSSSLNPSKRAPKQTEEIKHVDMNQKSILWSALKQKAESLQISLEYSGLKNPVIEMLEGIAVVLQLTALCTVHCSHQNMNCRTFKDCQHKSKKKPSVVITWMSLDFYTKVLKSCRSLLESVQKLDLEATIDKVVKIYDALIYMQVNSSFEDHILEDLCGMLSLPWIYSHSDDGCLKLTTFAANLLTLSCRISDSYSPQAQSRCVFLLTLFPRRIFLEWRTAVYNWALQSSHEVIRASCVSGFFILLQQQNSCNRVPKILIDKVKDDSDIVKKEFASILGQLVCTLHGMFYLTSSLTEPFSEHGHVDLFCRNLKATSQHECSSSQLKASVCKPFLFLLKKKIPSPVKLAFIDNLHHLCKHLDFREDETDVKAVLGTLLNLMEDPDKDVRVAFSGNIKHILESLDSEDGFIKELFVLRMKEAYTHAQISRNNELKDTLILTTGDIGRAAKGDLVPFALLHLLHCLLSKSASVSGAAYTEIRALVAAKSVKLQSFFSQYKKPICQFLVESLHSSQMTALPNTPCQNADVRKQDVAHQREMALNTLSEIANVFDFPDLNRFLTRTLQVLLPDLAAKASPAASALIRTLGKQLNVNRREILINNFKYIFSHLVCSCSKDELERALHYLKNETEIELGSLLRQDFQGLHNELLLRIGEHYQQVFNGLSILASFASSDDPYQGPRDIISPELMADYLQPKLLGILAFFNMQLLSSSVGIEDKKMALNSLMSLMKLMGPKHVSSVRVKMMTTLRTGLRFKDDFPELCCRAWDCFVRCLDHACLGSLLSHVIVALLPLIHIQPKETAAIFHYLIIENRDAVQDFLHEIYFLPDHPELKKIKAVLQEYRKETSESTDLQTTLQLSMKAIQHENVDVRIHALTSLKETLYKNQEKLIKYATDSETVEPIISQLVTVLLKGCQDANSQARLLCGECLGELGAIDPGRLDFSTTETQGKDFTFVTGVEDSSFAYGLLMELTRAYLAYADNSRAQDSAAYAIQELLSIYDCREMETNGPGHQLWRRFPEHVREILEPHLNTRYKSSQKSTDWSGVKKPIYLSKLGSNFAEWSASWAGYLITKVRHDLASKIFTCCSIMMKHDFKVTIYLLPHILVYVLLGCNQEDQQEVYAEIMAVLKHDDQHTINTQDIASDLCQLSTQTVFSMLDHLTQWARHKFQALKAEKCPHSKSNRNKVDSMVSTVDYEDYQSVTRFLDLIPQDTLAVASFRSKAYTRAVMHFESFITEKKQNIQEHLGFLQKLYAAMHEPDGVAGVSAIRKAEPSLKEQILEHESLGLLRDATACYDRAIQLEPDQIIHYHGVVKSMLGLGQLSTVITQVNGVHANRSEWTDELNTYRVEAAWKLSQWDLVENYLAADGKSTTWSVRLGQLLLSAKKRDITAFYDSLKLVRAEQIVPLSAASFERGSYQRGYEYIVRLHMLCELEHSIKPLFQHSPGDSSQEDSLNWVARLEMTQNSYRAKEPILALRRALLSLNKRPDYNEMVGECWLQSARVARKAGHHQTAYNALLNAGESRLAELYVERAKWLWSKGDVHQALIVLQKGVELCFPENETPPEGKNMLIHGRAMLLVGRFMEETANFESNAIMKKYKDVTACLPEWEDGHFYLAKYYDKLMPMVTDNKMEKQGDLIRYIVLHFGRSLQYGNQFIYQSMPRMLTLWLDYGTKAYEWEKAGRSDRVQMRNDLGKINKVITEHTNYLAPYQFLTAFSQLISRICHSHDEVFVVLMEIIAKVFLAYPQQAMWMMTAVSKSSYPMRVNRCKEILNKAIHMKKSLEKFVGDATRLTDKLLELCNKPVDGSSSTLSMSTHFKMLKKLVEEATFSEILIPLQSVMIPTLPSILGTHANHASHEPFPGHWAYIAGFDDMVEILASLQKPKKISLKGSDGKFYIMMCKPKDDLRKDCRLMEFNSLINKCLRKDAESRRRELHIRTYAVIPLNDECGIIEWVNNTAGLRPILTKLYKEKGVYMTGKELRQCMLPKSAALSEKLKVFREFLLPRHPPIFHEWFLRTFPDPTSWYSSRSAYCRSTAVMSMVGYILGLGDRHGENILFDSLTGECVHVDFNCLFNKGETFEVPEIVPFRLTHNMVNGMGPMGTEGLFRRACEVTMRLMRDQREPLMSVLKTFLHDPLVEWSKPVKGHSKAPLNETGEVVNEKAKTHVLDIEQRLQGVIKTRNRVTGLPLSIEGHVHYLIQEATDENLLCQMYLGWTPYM
row,Ki [nM],Compound
1,1000 to 5000,"CN1CCN(c2cc(Cl)ncc2NC(=O)c2c(N)nn3cc(Cl)cnc23)CC1 [I-N-52, 2-amino-6-chloro-N-(6-chloro-4-(4-methylpiperazin-1-yl)pyridin-3-yl)pyrazolo[1,5-a]pyrimidine-3-carboxamide]"

# Same assay, conditions: Ki(app), 5 nM full-length ATR, 10 μM ATP, 25° C.
row,Ki [nM],Compound
1,10 to 1000,"CC(C)N1CCN(c2ccncc2NC(=O)c2c(N)nn3cc(Cl)cnc23)CC1 [I-N-39, 2-amino-6-chloro-N-(4-(4-isopropylpiperazin-1-yl)pyridin-3-yl)pyrazolo[1,5-a]pyrimidine-3-carboxamide]"
2,10 to 1000,"CN(C)C1CCCN(c2ccncc2NC(=O)c2c(N)nn3cc(Cl)cnc23)C1 (stereo not drawn) [I-N-40, 2-amino-6-chloro-N-(4-(3-(dimethylamino)piperidin-1-yl)pyridin-3-yl)pyrazolo[1,5-a]pyrimidine-3-carboxamide]"
3,10 to 1000,"CN1CCN(c2c(Cl)cncc2NC(=O)c2c(N)nn3cc(Cl)cnc23)CC1 [I-N-41, 2-amino-6-chloro-N-(5-chloro-4-(4-methylpiperazin-1-yl)pyridin-3-yl)pyrazolo[1,5-a]pyrimidine-3-carboxamide]"
4,10 to 1000,"CN1CCCN(c2ccncc2NC(=O)c2c(N)nn3cc(Cl)cnc23)CC1 [I-N-43, 2-amino-6-chloro-N-(4-(4-methyl-1,4-diazepan-1-yl)pyridin-3-yl)pyrazolo[1,5-a]pyrimidine-3-carboxamide]"
5,10 to 1000,"Nc1nn2cc(Cl)cnc2c1C(=O)Nc1cnccc1N1CCn2ccnc2C1 [I-N-44, 2-amino-6-chloro-N-(4-(5,6-dihydroimidazo[1,2-a]pyrazin-7(8H)-yl)pyridin-3-yl)pyrazolo[1,5-a]pyrimidine-3-carboxamide]"
6,10 to 1000,"CN(C)CC1CCN(c2ccncc2NC(=O)c2c(N)nn3cc(Cl)cnc23)CC1 [I-N-45, 2-amino-6-chloro-N-(4-(4-((dimethylamino)methyl)piperidin-1-yl)pyridin-3-yl)pyrazolo[1,5-a]pyrimidine-3-carboxamide]"
7,10 to 1000,"COC1(CN(C)C)CCN(c2ccncc2NC(=O)c2c(N)nn3cc(Cl)cnc23)CC1 [I-N-46, 2-amino-6-chloro-N-(4-(4-((dimethylamino)methyl)-4-methoxypiperidin-1-yl)pyridin-3-yl)pyrazolo[1,5-a]pyrimidine-3-carboxamide]"
8,10 to 1000,"COCC1CN(c2ccncc2NC(=O)c2c(N)nn3cc(Cl)cnc23)CCN1C (stereo not drawn) [I-N-47, 2-amino-6-chloro-N-(4-(3-(methoxymethyl)-4-methylpiperazin-1-yl)pyridin-3-yl)pyrazolo[1,5-a]pyrimidine-3-carboxamide]"
9,10 to 1000,"Nc1nn2cc(Cl)cnc2c1C(=O)Nc1cnccc1N1CCN(C2CCC2)CC1 [I-N-48, 2-amino-6-chloro-N-(4-(4-cyclobutylpiperazin-1-yl)pyridin-3-yl)pyrazolo[1,5-a]pyrimidine-3-carboxamide]"
10,10 to 1000,"CN(C)CCN1CCN(c2ccncc2NC(=O)c2c(N)nn3cc(Cl)cnc23)CC1 [I-N-49, 2-amino-6-chloro-N-(4-(4-(2-(dimethylamino)ethyl)piperazin-1-yl)pyridin-3-yl)pyrazolo[1,5-a]pyrimidine-3-carboxamide]"
11,10 to 1000,"CN1CCN(c2cc(N)ncc2NC(=O)c2c(N)nn3cc(Cl)cnc23)CC1 [I-N-50, 2-amino-N-(6-amino-4-(4-methylpiperazin-1-yl)pyridin-3-yl)-6-chloropyrazolo[1,5-a]pyrimidine-3-carboxamide]"
12,10 to 1000,"CCN1CCN(c2ccncc2NC(=O)c2c(N)nn3cc(Cl)cnc23)CC1 [I-N-51, 2-amino-6-chloro-N-(4-(4-ethylpiperazin-1-yl)pyridin-3-yl)pyrazolo[1,5-a]pyrimidine-3-carboxamide]"
13,10 to 1000,"CN1CCN(c2ccncc2NC(=O)c2c(N)nn3cc(Cl)cnc23)CC1(C)C [I-N-53, 2-amino-6-chloro-N-(4-(3,3,4-trimethylpiperazin-1-yl)pyridin-3-yl)pyrazolo[1,5-a]pyrimidine-3-carboxamide]"
14,10 to 1000,"CC1CN(c2ccncc2NC(=O)c2c(N)nn3cc(Cl)cnc23)CCN1C (stereo not drawn) [I-N-54, 2-amino-6-chloro-N-(4-(3,4-dimethylpiperazin-1-yl)pyridin-3-yl)pyrazolo[1,5-a]pyrimidine-3-carboxamide]"
15,10 to 1000,"Nc1nn2cc(Cl)cnc2c1C(=O)Nc1cnccc1N1CCCC(N)C1 (stereo not drawn) [I-N-55, 2-amino-N-(4-(3-aminopiperidin-1-yl)pyridin-3-yl)-6-chloropyrazolo[1,5-a]pyrimidine-3-carboxamide]"
16,10 to 1000,"Cc1cncc(NC(=O)c2c(N)nn3cc(Cl)cnc23)c1N1CCN(C)CC1 [I-N-57, 2-amino-6-chloro-N-(5-methyl-4-(4-methylpiperazin-1-yl)pyridin-3-yl)pyrazolo[1,5-a]pyrimidine-3-carboxamide]"
17,10 to 1000,"CN1CCN(c2ccncc2NC(=O)c2c(N)nn3cc(Cl)cnc23)CC1 [I-N-59, 2-amino-6-chloro-N-(4-(4-methylpiperazin-1-yl)pyridin-3-yl)pyrazolo[1,5-a]pyrimidine-3-carboxamide]"

row,Ki [nM],Compound
1,10 to 1000,"COCCN1CCN(c2ccncc2NC(=O)c2c(N)nn3cc(Cl)cnc23)CC1 [I-N-60, 2-amino-6-chloro-N-(4-(4-(2-methoxyethyl)piperazin-1-yl)pyridin-3-yl)pyrazolo[1,5-a]pyrimidine-3-carboxamide]"
2,10 to 1000,"CN1CCN2CCN(c3ccncc3NC(=O)c3c(N)nn4cc(Cl)cnc34)CC2C1 (stereo not drawn) [I-N-61, 2-amino-6-chloro-N-(4-(8-methylhexahydro-1H-pyrazino[1,2-a]pyrazin-2(6H)-yl)pyridin-3-yl)pyrazolo[1,5-a]pyrimidine-3-carboxamide]"
3,10 to 1000,"CC1(N2CCN(c3ccncc3NC(=O)c3c(N)nn4cc(F)cnc34)CC2)COC1 [I-N-62, 2-amino-6-fluoro-N-(4-(4-(3-methyloxetan-3-yl)piperazin-1-yl)pyridin-3-yl)pyrazolo[1,5-a]pyrimidine-3-carboxamide]"
4,10 to 1000,"CN1CCN(c2ccncc2NC(=O)c2c(N)nn3cc(Cl)cnc23)CC1CO (stereo not drawn) [I-N-63, 2-amino-6-chloro-N-(4-(3-(hydroxymethyl)-4-methylpiperazin-1-yl)pyridin-3-yl)pyrazolo[1,5-a]pyrimidine-3-carboxamide]"
5,10 to 1000,"Nc1nn2cc(Cl)cnc2c1C(=O)Nc1cnccc1N1CCN(C2CC2)CC1 [I-N-64, 2-amino-6-chloro-N-(4-(4-cyclopropylpiperazin-1-yl)pyridin-3-yl)pyrazolo[1,5-a]pyrimidine-3-carboxamide]"
6,10 to 1000,"Nc1nn2cc(Cl)cnc2c1C(=O)Nc1cnccc1N1CCN2CCC[C@@H]2C1 [I-N-65, (R)-2-amino-6-chloro-N-(4-(hexahydropyrrolo[1,2-a]pyrazin-2(1H)-yl)pyridin-3-yl)pyrazolo[1,5-a]pyrimidine-3-carboxamide]"
7,10 to 1000,"CC1(O)CCN(c2ccncc2NC(=O)c2c(N)nn3cc(Cl)cnc23)CC1 [I-N-66, 2-amino-6-chloro-N-(4-(4-hydroxy-4-methylpiperidin-1-yl)pyridin-3-yl)pyrazolo[1,5-a]pyrimidine-3-carboxamide]"
8,10 to 1000,"Nc1nn2cc(Cl)cnc2c1C(=O)Nc1cnccc1N1CCN(CC(F)(F)F)CC1 [I-N-67, 2-amino-6-chloro-N-(4-(4-(2,2,2-trifluoroethyl)piperazin-1-yl)pyridin-3-yl)pyrazolo[1,5-a]pyrimidine-3-carboxamide]"
9,10 to 1000,"Nc1nn2cc(Cl)cnc2c1C(=O)Nc1cnccc1N1CC[S+]([O-])CC1 [I-N-68, 2-amino-6-chloro-N-(4-(1-oxidothiomorpholino)pyridin-3-yl)pyrazolo[1,5-a]pyrimidine-3-carboxamide]"
10,10 to 1000,"CC(C)(O)C1CCN(c2ccncc2NC(=O)c2c(N)nn3cc(Cl)cnc23)CC1 [I-N-69, 2-amino-6-chloro-N-(4-(4-(2-hydroxypropan-2-yl)piperidin-1-yl)pyridin-3-yl)pyrazolo[1,5-a]pyrimidine-3-carboxamide]"
11,10 to 1000,"Nc1nn2cc(Cl)cnc2c1C(=O)Nc1cnccc1N1CCNC(C(F)(F)F)C1 (stereo not drawn) [I-N-70, 2-amino-6-chloro-N-(4-(3-(trifluoromethyl)piperazin-1-yl)pyridin-3-yl)pyrazolo[1,5-a]pyrimidine-3-carboxamide]"
12,10 to 1000,"Nc1nn2cc(Cl)cnc2c1C(=O)Nc1cnccc1N1CCN2CCC[C@H]2C1 [I-N-71, (S)-2-amino-6-chloro-N-(4-(hexahydropyrrolo[1,2-a]pyrazin-2(1H)-yl)pyridin-3-yl)pyrazolo[1,5-a]pyrimidine-3-carboxamide]"
13,10 to 1000,"CC1CN(C)CCN1c1ccncc1NC(=O)c1c(N)nn2cc(Cl)cnc12 (stereo not drawn) [I-N-72, 2-amino-6-chloro-N-(4-(2,4-dimethylpiperazin-1-yl)pyridin-3-yl)pyrazolo[1,5-a]pyrimidine-3-carboxamide]"
14,10 to 1000,"COC1CCN(c2ccncc2NC(=O)c2c(N)nn3cc(Cl)cnc23)CC1 [I-N-73, 2-amino-6-chloro-N-(4-(4-methoxypiperidin-1-yl)pyridin-3-yl)pyrazolo[1,5-a]pyrimidine-3-carboxamide]"
15,10 to 1000,"COC(=O)C1CCN(c2ccncc2NC(=O)c2c(N)nn3cc(Cl)cnc23)CC1 [I-N-74, methyl-1-(3-(2-amino-6-chloropyrazolo[1,5-a]pyrimidine-3-carboxamido)pyridin-4-yl)piperidine-4-carboxylate]"
16,10 to 1000,"Nc1nn2cc(Cl)cnc2c1C(=O)Nc1cnccc1N1CCn2cncc2C1 [I-N-75, 2-amino-6-chloro-N-(4-(5,6-dihydroimidazo[1,5-a]pyrazin-7(8H)-yl)pyridin-3-yl)pyrazolo[1,5-a]pyrimidine-3-carboxamide]"

row,Compound,Ki [nM]
1,"Nc1nn2cc(Cl)cnc2c1C(=O)Nc1cnccc1N1C2CCC1CC(O)C2 (stereo not drawn) [I-N-42, 2-amino-6-chloro-N-(4-(3-hydroxy-8-azabicyclo[3.2.1]octan-8-yl)pyridin-3-yl)pyrazolo[1,5-a]pyrimidine-3-carboxamide]",10 to 1000
2,"Nc1nn2cc(Cl)cnc2c1C(=O)Nc1cnccc1N1CCN2CCC1CC2 [I-N-56, N-(4-(1,4-diazabicyclo[3.2.2]nonan-4-yl)pyridin-3-yl)-2-amino-6-chloropyrazolo[1,5-a]pyrimidine-3-carboxamide]",10 to 1000
